Source: patent US20250255992A1, “COXIB-DERIVED CONJUGATE COMPOUNDS AND METHODS OF USE THEREOF” (Reiley Pharmaceuticals, Inc., priority 2020, published 2025)

Assays:
COX-2 = COX-2 (Mus musculus (Mouse), UniProt Q05769); assay: Cell-based COX-2 assay (PGE2 in LPS/IFN-g stimulated RAW264.7 cells); details: RAW264.7 murine macrophages, LPS + IFN-g, PGE2 readout
Experimental: Cell culture: RAW264.7 murine macrophages are obtained from the Cell Bank of Shanghai Institute of Biochemistry and Cell Biology, Chinese Academy of Sciences (Shanghai, China) and cultured in Dulbecco's modified Eagle's medium containing 100 U/ml penicillin and 100 µg/ml streptomycin at 37° C. in 5% CO2.
The cells are pre-incubated for 30 min with various doses of compounds and stimulated for 7 h with […] LPS and 10 U/ml IFN-g. The cell culture supernatants are collected immediately following treatment and centrifuged at 1,000 rpm for 5 min to remove the particulate matter. PGE2 is determined using a Prostaglandin E2 assay kit (catalog no. 62P2APEB; Cisbio Co.). […] Replace the standard by 10 μL of diluent and PGE2-d2 by 5 μL of reconstitution buffer, Cal0 (for positive control), replace the standard by 10 µL of diluent. Incubate at 4° C. overnight.
(§1) Dose-response curves are generated using XLFit (IDBS, Surrey, UK) or Prism (GraphPad Software, La Jolla, CA, US) to calculate IC50 values for each compound tested.

human COX-2 = human COX-2 (Homo sapiens (Human), UniProt P35354); type: biochemical; details: read-out: COX-2 IC50 (μM) enzyme
ovine COX-1 = ovine COX-1 (Ovis aries (Sheep), UniProt P05979); assay: COX-1/-2 enzyme assay (EIA kit), COX-1; type: biochemical; details: ovine COX-1 enzyme immunoassay
Experimental: COX-1/-2 enzyme assay: The ability of compounds to inhibit ovine COX-1 and human COX-2 is determined using a commercially available enzyme immunoassay (EIA) kit (catalog no. 701090 (COX-1); 701080 (COX-2) Cayman Chemical Co., Ann Arbor, MI, USA) according to the manufacturer's protocol. COX catalyzes the first step in the biosynthesis of AA to PGH2. PGF2α, produced from PGH2 by reduction with stannous chloride, was measured by EIA (ACE™ competitive EIA, Cayman Chemical, Ann Arbor, MI, USA). Briefly, to a series of supplied reaction buffer solutions [960 μl 0.1 M Tris-HCl (pH 8.0) containing 5 mM EDTA and 2 mM phenol] with either COX-1 or COX-2 (10 μl) enzyme in the presence of heme (10 μl), 10 μl of various concentrations of test drug solutions are added. These solutions are incubated for 15 min at 37° C. and subsequently 10 μl AA solution (100 μM) is added. The COX reaction is stopped by the addition of 30 μl stannous chloride after 2 min, mixed immediately, supernatants are 2000-fold diluted. The produced PGF2α is measured by EIA. This assay is based on the competition between PGs and a PG-acetylcholinesterase conjugate (PG tracer) for a limited amount of PG antiserum. The amount of PG tracer that is able to bind to the PG antiserum is inversely proportional to the concentration of PGs in the wells since the concentration of the PG tracer is held at a constant while the concentration of PGs varies. The specific antiserum-PG complex binds to a mouse anti-rabbit IgG that had been previously attached to the well. The plate is washed to remove any unbound reagents and 200 μl Ellman's reagent (5,5′-dithiobis-(2-nitrobenzoic acid), which contains the substrate to acetylcholine esterase, is added to the well. The product of this enzymatic reaction generates a distinct yellow color that absorbs at 406 nm. The intensity of this color, determined by spectrophotometry, is proportional to the amount of PG tracer bound to the well, which is inversely proportional to the amount of PGs present in the well during the incubation. Percent inhibition is calculated by the comparison of the compounds treated to the various control incubations.
as §1

Sequence of COX-2 (Q05769 18-604): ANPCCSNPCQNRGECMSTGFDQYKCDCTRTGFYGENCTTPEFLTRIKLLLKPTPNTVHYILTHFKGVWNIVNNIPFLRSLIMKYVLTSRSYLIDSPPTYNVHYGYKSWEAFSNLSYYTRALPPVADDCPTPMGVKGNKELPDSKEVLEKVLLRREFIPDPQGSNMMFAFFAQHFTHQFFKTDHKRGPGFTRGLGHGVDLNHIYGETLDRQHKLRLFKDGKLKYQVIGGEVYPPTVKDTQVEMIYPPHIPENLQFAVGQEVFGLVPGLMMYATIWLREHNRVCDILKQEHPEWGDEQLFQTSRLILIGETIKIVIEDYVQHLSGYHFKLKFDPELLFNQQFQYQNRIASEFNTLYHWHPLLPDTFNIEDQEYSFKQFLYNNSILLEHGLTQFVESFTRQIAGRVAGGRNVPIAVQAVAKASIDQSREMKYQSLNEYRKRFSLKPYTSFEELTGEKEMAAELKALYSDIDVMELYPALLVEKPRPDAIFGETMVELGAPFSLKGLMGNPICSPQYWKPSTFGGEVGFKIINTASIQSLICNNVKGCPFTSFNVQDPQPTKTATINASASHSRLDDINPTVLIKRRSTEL
Sequence of human COX-2 (P35354 18-604 limits assumed): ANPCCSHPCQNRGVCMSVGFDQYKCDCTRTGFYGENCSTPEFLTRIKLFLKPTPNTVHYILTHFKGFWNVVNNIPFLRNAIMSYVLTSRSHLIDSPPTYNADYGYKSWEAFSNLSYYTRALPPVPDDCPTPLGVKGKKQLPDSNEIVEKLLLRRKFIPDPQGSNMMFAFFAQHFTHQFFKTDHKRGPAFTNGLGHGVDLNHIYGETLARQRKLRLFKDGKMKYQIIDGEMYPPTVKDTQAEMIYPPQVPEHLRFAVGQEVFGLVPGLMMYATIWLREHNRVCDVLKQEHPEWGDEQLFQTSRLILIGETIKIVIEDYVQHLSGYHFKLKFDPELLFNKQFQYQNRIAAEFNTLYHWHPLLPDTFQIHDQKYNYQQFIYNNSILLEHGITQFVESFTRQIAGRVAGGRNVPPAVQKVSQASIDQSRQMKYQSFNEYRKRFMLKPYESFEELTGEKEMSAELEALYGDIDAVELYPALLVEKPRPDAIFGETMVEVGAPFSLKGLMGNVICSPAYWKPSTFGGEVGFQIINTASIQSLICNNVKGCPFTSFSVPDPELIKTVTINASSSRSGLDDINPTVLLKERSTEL
Sequence of ovine COX-1 (P05979 25-600 limits assumed): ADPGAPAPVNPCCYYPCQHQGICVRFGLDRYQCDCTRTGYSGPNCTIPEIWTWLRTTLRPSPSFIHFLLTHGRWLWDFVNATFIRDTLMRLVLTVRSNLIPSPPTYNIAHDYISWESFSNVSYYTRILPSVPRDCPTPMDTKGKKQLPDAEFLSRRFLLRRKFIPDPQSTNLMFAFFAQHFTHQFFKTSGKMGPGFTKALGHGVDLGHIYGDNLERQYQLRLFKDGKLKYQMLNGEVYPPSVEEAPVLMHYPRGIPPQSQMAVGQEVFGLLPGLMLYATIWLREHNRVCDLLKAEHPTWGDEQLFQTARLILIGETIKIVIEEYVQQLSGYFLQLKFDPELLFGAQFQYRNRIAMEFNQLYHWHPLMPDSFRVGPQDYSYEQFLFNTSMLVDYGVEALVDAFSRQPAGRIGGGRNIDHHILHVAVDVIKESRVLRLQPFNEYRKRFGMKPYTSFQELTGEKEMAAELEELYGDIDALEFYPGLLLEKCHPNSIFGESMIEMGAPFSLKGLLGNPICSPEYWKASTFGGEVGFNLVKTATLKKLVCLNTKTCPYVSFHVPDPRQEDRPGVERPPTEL

NS(=O)(=O)c1ccc(-n2nc(COCCCCCCC[N+]34CC[S][Re]35(=[O])[S]CC[N]5CC4)cc2-c2ccc(F)cc2)cc1 (stereo not drawn) [Compound 16]
IC50 (COX-2): 0.21 µM | IC50 (human COX-2): 0.31 µM | IC50 (ovine COX-1): > 10 µM

NS(=O)(=O)c1ccc(-c2c(-c3ccccc3)noc2CCCCCC[N+]23CC[S][Re]24(=[O])[S]CC[N]4CC3)cc1 (stereo not drawn) [Compound 26]
IC50 (COX-2): 0.23 µM | IC50 (human COX-2): 0.16 µM

NS(=O)(=O)c1ccc(-n2nc(CCCCCCCN3CC[S][Re]4(=[O])[S]CC[N]4CC3)cc2-c2ccc(Cl)cc2)cc1 (stereo not drawn) [Compound 7]
IC50 (human COX-2): > 10 µM

NS(=O)(=O)c1ccc(-n2nc(CCCCCCN3CC[S][Re]4(=[O])[S]CC[N]4CC3)cc2-c2ccc(Cl)cc2)cc1 (stereo not drawn) [Compound 6]
IC50 (human COX-2): 3.31 µM

COc1ccc(-c2cc(COCCCCCCN3CC[S][Re]4(=[O])[S]CC[N]4CC3)nn2-c2ccc(S(N)(=O)=O)cc2)cc1 (stereo not drawn) [Compound 19]
IC50 (human COX-2): 4.51 µM

NS(=O)(=O)c1ccc(-n2nc(COCCCCCCN3CC[S][Re]4(=[O])[S]CC[N]4CC3)cc2-c2ccc(Cl)cc2)cc1 (stereo not drawn) [Compound 18]
IC50 (human COX-2): > 10 µM

NS(=O)(=O)c1ccc(-n2nc(COCCCCCC[N+]34CC[S][Re]35(=[O])[S]CC[N]5CC4)cc2-c2ccc(F)cc2)cc1 (stereo not drawn) [Compound 14]
IC50 (human COX-2): 2.36 µM

NS(=O)(=O)c1ccc(-c2c(-c3ccccc3)noc2CCCCCCC[N+]23CC[S][Re]24(=[O])[S]CC[N]4CC3)cc1 (stereo not drawn) [Compound 27]
IC50 (COX-2): 0.07 µM | IC50 (human COX-2): 0.07 µM | IC50 (ovine COX-1): > 10 µM

NS(=O)(=O)c1ccc(-c2c(-c3ccccc3)noc2CCCCCCCCC[N+]23CC[S][Re]24(=[O])[S]CC[N]4CC3)cc1 (stereo not drawn) [Compound 28]
IC50 (COX-2): 0.025 µM | IC50 (human COX-2): 0.019 µM | IC50 (ovine COX-1): > 10 µM

COc1ccc(-c2cc(CCCCCCCCC[N+]34CC[S][Re]35(=[O])[S]CC[N]5CC4)nn2-c2ccc(S(N)(=O)=O)cc2)cc1 (stereo not drawn) [Compound 10]
IC50 (COX-2): 0.16 µM | IC50 (human COX-2): 0.06 µM | IC50 (ovine COX-1): > 10 µM

Cc1ccc(-c2cc(CCCCCCCCCN3CC[S][Re]4(=[O])[S]CC[N]4CC3)nn2-c2ccc(S(N)(=O)=O)cc2)cc1 (stereo not drawn) [Compound 11]
IC50 (COX-2): 0.2 µM | IC50 (human COX-2): 4.49 µM

Cc1ccc(-c2cc(COCCCCCCC[N+]34CC[S][Re]35(=[O])[S]CC[N]5CC4)nn2-c2ccc(S(N)(=O)=O)cc2)cc1 (stereo not drawn) [Compound 21]
IC50 (COX-2): 0.15 µM | IC50 (human COX-2): 2.48 µM

NS(=O)(=O)c1ccc(-n2nc(CCCCCCCCN3CC[S][Re]4(=[O])[S]CC[N]4CC3)cc2-c2ccc(F)cc2)cc1 (stereo not drawn) [Compound 4]
IC50 (COX-2): 0.32 µM | IC50 (human COX-2): 0.59 µM

NS(=O)(=O)c1ccc(-n2nc(COCCCOCCCN3CC[S][Re]4(=[O])[S]CC[N]4CC3)cc2-c2ccc(F)cc2)cc1 (stereo not drawn) [Compound 17]
IC50 (human COX-2): 4.15 µM

NS(=O)(=O)c1ccc(-n2nc(CCCCCCCN3CC[S][Re]4(=[O])[S]CC[N]4CC3)cc2-c2ccc(F)cc2)cc1 (stereo not drawn) [Compound 3]
IC50 (human COX-2): > 10 µM

COc1ccc(-c2cc(COCCCCCCCN3CC[S][Re]4(=[O])[S]CC[N]4CC3)nn2-c2ccc(S(N)(=O)=O)cc2)cc1 (stereo not drawn) [Compound 20]
IC50 (COX-2): 0.22 µM | IC50 (human COX-2): 0.54 µM

NS(=O)(=O)c1ccc(-n2nc(CCCCCCCCC[N+]34CC[S][Re]35(=[O])[S]CC[N]5CC4)cc2-c2ccc(F)cc2)cc1 (stereo not drawn) [Compound 5]
IC50 (COX-2): 0.15 µM | IC50 (human COX-2): 0.13 µM | IC50 (ovine COX-1): > 10 µM

NS(=O)(=O)c1ccc(-n2nc(CCCCCN3CC[S][Re]4(=[O])[S]CC[N]4CC3)cc2-c2ccc(F)cc2)cc1 (stereo not drawn) [Compound 2]
IC50 (COX-2): 0.66 µM | IC50 (human COX-2): 1.33 µM

NS(=O)(=O)c1ccc(-n2nc(COCCCC[N+]34CC[S][Re]35(=[O])[S]CC[N]5CC4)cc2-c2ccc(F)cc2)cc1 (stereo not drawn) [Compound 15]
IC50 (human COX-2): 2.37 µM

NS(=O)(=O)c1ccc(-n2nc(CCCCCCCCC[N+]34CC[S][Re]35(=[O])[S]CC[N]5CC4)cc2-c2ccc(Cl)cc2)cc1 (stereo not drawn) [Compound 8]
IC50 (COX-2): 0.2 µM | IC50 (human COX-2): 0.19 µM

NS(=O)(=O)c1ccc(-n2nc(CCCCCCCCN3CC[S][Re]4(=[O])[S]CC[N]4CC3)cc2-c2ccc(Cl)cc2)cc1 (stereo not drawn) [Compound 9]
IC50 (COX-2): 0.19 µM | IC50 (human COX-2): 0.11 µM
